Assay results from ChEMBL document CHEMBL1141799, “Cyanopeptolin 954, a chlorine-containing chymotrypsin inhibitor of Microcystis aeruginosa NIVA Cya 43” (J Nat Prod, 2005).
Calls of active or inactive are those of the source. The rule behind the calls is not given here.

Experiments:
Bos taurus [1] = species on record: Bos taurus; assay: Inhibition of bovine trypsin at 11.4 uM
Bos taurus [2] = species on record: Bos taurus; assay: Inhibition of bovine trypsin at 17.3 uM
[3] = Inhibition of bovine chymotrypsin; set-up: species or system Bos taurus
[4] = Inhibition of chymotrypsin

| SMILES | Activity (Bos taurus [1]) | Activity (Bos taurus [2]) | IC50 [3] [nM] | IC50 [4] [nM] |
| --- | --- | --- | --- | --- |
| CC(=O)N[C@@H](CCC(N)=O)C(=O)N[C@@H]1C(=O)N[C@@H](CC(C)C)C(=O)N[C@H]2CC[C@@H](O)N(C2=O)[C@@H](Cc2ccccc2)C(=O)N(C)[C@@H](Cc2ccc(O)c(Cl)c2)C(=O)N[C@@H](C(C)C)C(=O)O[C@H]1C [CYANOPEPTOLIN 954] | inactive | inactive | 44.5 |  |
| CC[C@H](C)[C@@H]1NC(=O)[C@H](Cc2ccc(O)cc2)N(C)C(=O)[C@H](Cc2ccccc2)N2C(=O)[C@H](CC[C@H]2O)NC(=O)[C@H](Cc2ccccc2)NC(=O)[C@@H](NC(=O)[C@@H](O)COP(=O)(O)O)[C@@H](C)OC1=O [MICROPEPTIN T 20] |  |  |  | 2.5 |
| CC(=O)N[C@@H](CCC(N)=O)C(=O)N[C@@H]1C(=O)N[C@@H](CC(C)C)C(=O)N[C@H]2CC[C@@H](O)N(C2=O)[C@@H](Cc2ccccc2)C(=O)N(C)[C@@H](Cc2ccc(O)cc2)C(=O)N[C@@H](C(C)C)C(=O)O[C@@H]1C [NOSTOPEPTIN BN920] | inactive | inactive | 31.2 |  |
